From PMC7702303, “Biochemical and transcript level differences between the three human phosphofructokinases show optimisation of each isoform for specific metabolic niches” (Biochemical Journal, 2020)
“And” between values parts separate entries of the source, which are not always exact repeats. Equal values may be shown once. Read-outs that look alike come from different tables or passages of the source.

How the values were obtained:
[1] = target: T1, recombinant human PFK-L (Homo sapiens, UniProt P17858); experiment: ALDO-TIM-G3PDH enzyme-linked kinetic assay, PFK-L; format: biochemical; settings: for K0.5ATP + modulator / VmaxATP + modulator: F6P 4mM
T1 construct: made in house; host or cells: PFK-deficient Saccharomyces cerevisiae
T1 sequence (P17858 1-780): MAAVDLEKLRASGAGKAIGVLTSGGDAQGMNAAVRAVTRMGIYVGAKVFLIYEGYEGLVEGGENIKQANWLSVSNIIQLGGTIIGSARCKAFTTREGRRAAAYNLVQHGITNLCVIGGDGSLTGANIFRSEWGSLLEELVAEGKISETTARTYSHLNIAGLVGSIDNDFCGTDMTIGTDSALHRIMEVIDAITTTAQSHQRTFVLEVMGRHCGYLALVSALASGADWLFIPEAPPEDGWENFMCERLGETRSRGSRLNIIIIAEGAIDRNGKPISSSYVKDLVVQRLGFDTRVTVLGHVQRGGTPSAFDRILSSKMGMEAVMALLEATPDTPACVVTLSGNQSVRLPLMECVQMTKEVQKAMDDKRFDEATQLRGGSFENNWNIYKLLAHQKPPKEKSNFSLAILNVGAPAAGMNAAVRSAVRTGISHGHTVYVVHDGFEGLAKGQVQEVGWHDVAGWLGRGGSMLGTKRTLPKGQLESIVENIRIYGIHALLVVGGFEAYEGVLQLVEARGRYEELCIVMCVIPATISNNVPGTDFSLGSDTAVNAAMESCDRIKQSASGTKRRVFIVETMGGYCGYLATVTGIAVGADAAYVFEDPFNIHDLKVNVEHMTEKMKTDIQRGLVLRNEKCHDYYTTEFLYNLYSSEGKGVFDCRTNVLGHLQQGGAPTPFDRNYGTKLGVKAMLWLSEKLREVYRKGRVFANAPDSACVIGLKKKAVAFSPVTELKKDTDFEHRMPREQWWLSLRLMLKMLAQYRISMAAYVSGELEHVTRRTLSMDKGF
Description: Recombinant human PFKs were expressed in PFK-deficient Saccharomyces cerevisiae and purified using the methods described previously, adapting earlier materials and protocols. Production of PFK intended for use in ATP titration experiments used 1 mM F6P as a tetramer stabilising agent in protein purification and storage buffers. Production of PFK intended for use in F6P titration experiments used 1 mM ATP as a tetramer stabilising agent in protein purification and storage buffers. Experimental details on the purification and characterisation procedures including figures showing SDS–PAGE gels of the highly pure PFKs used in the kinetic experiments described in this work have been recently published.
Assay buffer consisted of 50 mM TEA, 100 mM KCl, 10 mM MgCl2, 1 mM Tris(2-carboxyethyl)phosphine hydrochloride (TCEP), 10% glycerol, pH 7.4. Assay mix consisted of 5 units/ml glycerol-3-phosphate dehydrogenase (G3PDH, Sigma–Aldrich G6880), 2.5 units/ml aldolase (Sigma–Aldrich A2714), 25 units/ml triosephosphate isomerase (TIM, Sigma–Aldrich T6258), and 1.25 mM NADH. ATP and F6P were obtained from Sigma–Aldrich (A2383 and F3627, respectively). For ATP titrations, 38 µl of buffer or ligand were added to a clear non-binding 96-well plate. 40 µl of assay mix containing 10 mM F6P (final concentration 4 mM) was added and the plate was incubated at 25°C for 5 min. An amount of 2 µl of PFK isoforms were added to each well from stock concentrations of 150 µg/ml and the reaction was immediately started with 20 µl of ATP at varying concentrations. For F6P titrations, 30 µl of buffer or ligand was added to a clear non-binding 96-well plate. An amount of 40 µl of assay mix containing 1.25 mM ATP (final concentration 0.5 mM) was added and the plate was incubated at 25°C for 5 min. An amount of 5 µl of PFK isoforms were added to each well from stock concentrations of 200 µg/ml and the reaction was immediately started with 20 µl F6P at varying concentrations. All ligands and substrates (including ATP) were used at pH 7.4. All metabolites were obtained from Sigma–Aldrich unless otherwise stated. […] A SpectraMax M5 Multi-Mode Microplate Reader was used to measure A340nm at 13 s intervals for 10 min. All experiments were performed in triplicate unless otherwise stated.
Time-dependent absorbance change was converted into rate of NADH oxidation (µM s^−1) or specific activity (µmol min^−1 mg protein^−1) using the Beer-Lambert law (molar extinction coefficient of NADH 6.22 mM^−1 cm^−1). The initial rate of reaction was used to avoid accumulation of ADP, which activates PFK, interfering with the determination of kinetic properties. Non-linear regression analysis was performed on substrate titration data using GraphPad Prism 7, with curves fitted using allosteric sigmoidal models, enabling determination of steady-state kinetic values.

[2] = test system: PFKM; settings: cited from earlier work; for KmF6P: PFK-M; for IC50 or AC50 (activator): PFKM
[3] = test system: PFK-M (rat heart); design: method as in Moreno-Sanchez et al(10) 2012; settings: tissue supernatant, ATP 550-700M, ref Moreno-Sanchez et al(10) 2012; cited from earlier work
[4] = test system: PFK-P (HeLa cell); design: method as in Moreno-Sanchez et al(10) 2012; settings: tissue supernatant, ATP 550-700M, ref Moreno-Sanchez et al(10) 2012; cited from earlier work
[5] = test system: PFKL; settings: cited from earlier work
[6] = test system: PFKP; settings: cited from earlier work
[7] = PFK-L, modulator 10 µM, ATP 0.5mM, N=3, mean (SD)
[8] = PFK-L, modulator 10 µM, N=3, mean (SD)
[9] = PFK-L, GTP titration, F6P 4 mM, n = 3, mean (SD)
[10] = PFK-L, modulator 1100 µM, ATP 0.5mM, N=3, mean (SD)
[11] = PFK-L, modulator 1100 µM, N=3, mean (SD)

## O=C(CO)[C@@H](O)[C@H](O)[C@H](O)COP(=O)(O)O [F6P, fructose 6-phosphate]
[1]; PFK-L, F6P titration, ATP 0.5 mM, n = 6, mean (SD)
  K0.5^F6P: 1360 µM and 1360 (40) µM
[1]; PFK-L, control without modulator, run alongside modulator experiments, ATP 0.5mM, N=3, mean (SD)
  K0.5F6P: 1432 (34) M and 1282 (53) M
[2]; partially purified tissue, ATP 1000M, ref Dunaway et al(8) 1988
  KmF6P: 2000 µM
[2]; purified tissue, ATP 500M, ref Meienhofer et al(7) 1980
  KmF6P: 1800 µM
[2]; recombinant (yeast), ATP 5000M, ref Sanchez-Martinez et al(9) 2000
  KmF6P: 2000 µM
[3]
  KmF6P: 145 µM
[4]
  KmF6P: 1100 µM

## O=P(O)(O)OC[C@H]1O[C@@](CO)(OP(=O)(O)O)[C@@H](O)[C@@H]1O [F26BP, fructose 2,6-bisphosphate]
[1]; PFK-L
  effect on PFK activity, in words: strongly activated
[1]; PFK-L vs PFK-P
  decrease in AC50^F26BP for PFK-L compared with PFK-P: > 50 fold
[1]; PFK-L, ATP titration
  allosteric constant K0.5^ATP+F26BP/K0.5^ATP: 0.92
[1]; PFK-L, activation, read-out: AC50^F26BP
  AC50: 170 nM
[1]; PFK-L, modulator 10 µM
  change in kcat^ATP/K0.5^ATP compared with control PFK without modulator: +6.5%
  change in kcat^F6P/K0.5^F6P compared with control PFK without modulator: +148%
[1]; [7]
  K0.5F6P + modulator: 698 (105) M
  VmaxF6P + modulator: 5.07 (0.41) moles/min/mg
[1]; [8]
  K0.5ATP + modulator: 139.4 (12.3) M
  VmaxATP + modulator: 38.57 (1.23) moles/min/mg
[2]; ref Foe and Kemp, 1985
  IC50 or AC50 (activator): 0.05 µM
[2]; unit inferred, ref Vora 1985
  IC50 or AC50 (activator): 10 µM
[5]; ref Foe and Kemp, 1985
  IC50 or AC50 (activator): 0.05 µM
[5]; ref Van Schaftingen et al 1981
  IC50 or AC50 (activator): 0.04 µM
[5]; unit inferred, ref Vora 1985
  IC50 or AC50 (activator): 100 µM
[6]; ref Foe and Kemp, 1985
  IC50 or AC50 (activator): 4.5 µM
[6]; ref Sanchez-Martinez et al., 2000, read-out: Kact
  EC50: 2200 nM
[6]; unit inferred, ref Vora 1985
  IC50 or AC50 (activator): 100 µM

## Nc1nc2c(ncn2[C@@H]2O[C@H](COP(=O)(O)OP(=O)(O)OP(=O)(O)O)[C@@H](O)[C@H]2O)c(=O)[nH]1 [GTP]
[1]; [9]
  K0.5^GTP: 158 µM and 157.8 (10.8) µM
  Vmax^GTP: 25.39 (0.56) µmoles/min.mg
  kcat^GTP: 37.0 (0.8) s^−1
  kcat^GTP/K0.5^GTP: 0.23 s^−1 µM^−1 and 0.23 (0.07) s^−1 µM^−1
[1]; PFK-L, Hill value, GTP titration, F6P 4 mM, n = 3, mean (SD)
  h (GTP): 1.18 (0.08)

## C=C(OP(=O)(O)O)C(=O)O [PEP, phosphoenolpyruvate]
[1]; PFK-L, modulator 1100 µM
  change in kcat^ATP/K0.5^ATP compared with control PFK without modulator: +1%
  change in kcat^F6P/K0.5^F6P compared with control PFK without modulator: +92%
[1]; [10]
  K0.5F6P + modulator: 952.8 (137.7) M
  VmaxF6P + modulator: 5.36 (0.49) moles/min/mg
[1]; [11]
  K0.5ATP + modulator: 148.7 (18.6) M
  VmaxATP + modulator: 34.91 (1.59) moles/min/mg
[6]; ref Sanchez-Martinez et al., 2000
  Ki: 2.78 mM
